Experimental data taken from publication PMC6688371, “Effect of the inhaled PDE4 inhibitor CHF6001 on biomarkers of inflammation in COPD” (Respiratory Research, 2019).
Where two headings read alike, the source gives them in different places.

Legend:
patients with COPD = test: Safety and tolerability (adverse events, vital signs, ECG, laboratory data)
Excerpt: The Safety population is all randomised patients who received at least one dose of study medication.

[1] = Sputum concentration of CHF6001; format: in vivo, human; settings: for concentration at 2 h: sputum, mean of all values measured on Days 20, 26 and 32, geometric mean (%CV), read-out: Sputum concentration at 2 h post-dose
Method: The mean changes from baseline to Day 32 for lung function, CAT and TDI were analysed using similar methodology to sputum biomarkers, but were not log-transformed. […] The sputum concentration of CHF6001 was also evaluated at 2 h post-dose, using the mean of all values measured on Days 20, 26 and 32. Pharmacokinetic variables were summarised using geometric means and coefficients of variation, except for Tmax,ss, which is presented as median (range). […]
Only one of the sputum samples induced at 2 h post-dose on Days 20, 26 or 32 was used to evaluate CHF6001 concentration, with the evaluation performed only if a minimum of 300 mg of residual sputum remained. Approximately 30 mg of sputum plug was transferred to a polypropylene cryotube, and was shipped in an upright position at –80C to a central laboratory for analysis. The concentration of CHF6001 was evaluated using a LC-MS/MS method following solid phase extraction. Validation procedures were the same as those listed above for biomarkers. […]
over the calibration range of 30 to 20,000 ng/mL. The precision and accuracy of the method […]
30 ng/mL and within 15% at all other concentrations. No significant matrix effects were […]
temperature (nominally +22C), after storage for 93 days in a freezer set at –80C and after four freeze-thaw cycles at nominally –80C / +22C. The method was considered to be suitable for measuring concentrations of CHF6001 in human sputum samples from […]

[2] = Stability of CHF6001 in human plasma (bioanalytical validation); format: in vitro ADME
Method: Effect of CHF6001 on inflammatory biomarkers – Additional file 1 to –90C. The plasma concentration of CHF6001 was evaluated using a LC-MS/MS method following solid phase extraction. Validation procedures again followed those outlined for the analysis of biomarkers above. The bioanalytical method wa s found to be linear over the calibration range of 10 to 20,000 pg/mL. The precision and accuracy of the method was found to be within the target limits of within 20% at the lower limit of quantification 10 pg/mL and within 15% at all other concentrations.
The recovery of CHF6001 from human plasma was consistent across the analytical range , with no significant matrix effects. […]
for up to 24 h at the sample processing temperature (nominally +20C), a fter storage for 184 days in a freezer (nominally –80C) and after four freeze-thaw cycles at nominally – 80C / +20C. Therefore the method was considered to be suitable for measuring concentrations of CHF6001 in human plasma samples from regulatory studies.
The study was approved by two centralised ethics committees on behalf of the sites:
• UK: Health Research Authority, North West, Greater Manchester South Research Ethics Committee, Manchester (approval reference 16/NW/0553).
• Germany: Ethics Committee of Hesse Medical Association, Frankfurt am Main (approval reference FF 98/2016).
Patients had to meet all the following inclusion criteria to be eligible for enrolment into the […]
1. Written informed consent obtained prior to any study-related procedures;
2. Male or female aged ≥40 years;
3. A female was eligible to enter the study if they were of non-childbearing potential, i.e. physiologically incapable of becoming pregnant (e.g. postmenopausal women defined as being amenorrhoeic for ≥12 consecutive months without an alternative medical cause. If indicated, as per Investigator’s request, post -menopausal status

CS(=O)(=O)Nc1ccc(C(=O)O[C@@H](Cc2c(Cl)c[n+]([O-])cc2Cl)c2ccc(OC(F)F)c(OCC3CC3)c2)cc1OCC1CC1 [CHF6001]
Adverse events (patients with COPD; 800 μg BID (N = 58)): 30 (51.7) patients (%) | Adverse events leading to study drug withdrawal (patients with COPD; 800 μg BID (N = 58)): 3 (5.2) patients (%) | Adverse events with a fatal outcome (patients with COPD; 800 μg BID (N = 58)): 0 patients (%) | Back pain (patients with COPD; 800 μg BID (N = 58)): 4 (6.9) patients (%) | Cough (patients with COPD; 800 μg BID (N = 58)): 1 (1.7) patients (%) | Diarrhoea (patients with COPD; 800 μg BID (N = 58)): 3 (5.2) patients (%) | Drug-related adverse events (patients with COPD; 800 μg BID (N = 58)): 1 (1.7) patients (%) | Drug-related adverse events: Dry mouth (patients with COPD; 800 μg BID (N = 58)): 0 patients (%) | Drug-related adverse events: Sleep disorders (patients with COPD; 800 μg BID (N = 58)): 1 (1.7) patients (%) | Drug-related serious adverse events (patients with COPD; 800 μg BID (N = 58)): 0 patients (%) | Fatigue (patients with COPD; 800 μg BID (N = 58)): 1 (1.7) patients (%) | Headache (patients with COPD; 800 μg BID (N = 58)): 1 (1.7) patients (%) | Nasopharyngitis (patients with COPD; 800 μg BID (N = 58)): 5 (8.6) patients (%) | Oropharyngeal pain (patients with COPD; 800 μg BID (N = 58)): 3 (5.2) patients (%) | Serious adverse events (patients with COPD; 800 μg BID (N = 58)): 2 (3.4) patients (%) | Severe adverse events (patients with COPD; 800 μg BID (N = 58)): 0 patients (%) | Tension headache (patients with COPD; 800 μg BID (N = 58)): 1 (1.7) patients (%) | Toothache (patients with COPD; 800 μg BID (N = 58)): 3 (5.2) patients (%) | Patients reporting gastrointestinal adverse events (patients with COPD; 800 μg BID, seven patients): 12.1% | Adverse events (patients with COPD; 1600 μg BID (N = 59)): 33 (55.9) patients (%) | Adverse events leading to study drug withdrawal (patients with COPD; 1600 μg BID (N = 59)): 2 (3.4) patients (%) | Adverse events with a fatal outcome (patients with COPD; 1600 μg BID (N = 59)): 0 patients (%) | Back pain (patients with COPD; 1600 μg BID (N = 59)): 1 (1.7) patients (%) | Cough (patients with COPD; 1600 μg BID (N = 59)): 3 (5.1) patients (%) | Diarrhoea (patients with COPD; 1600 μg BID (N = 59)): 1 (1.7) patients (%) | Drug-related adverse events (patients with COPD; 1600 μg BID (N = 59)): 1 (1.7) patients (%) | Drug-related adverse events: Dry mouth (patients with COPD; 1600 μg BID (N = 59)): 1 (1.7) patients (%) | Drug-related adverse events: Sleep disorders (patients with COPD; 1600 μg BID (N = 59)): 0 patients (%) | Drug-related serious adverse events (patients with COPD; 1600 μg BID (N = 59)): 0 patients (%) | Fatigue (patients with COPD; 1600 μg BID (N = 59)): 3 (5.1) patients (%) | Headache (patients with COPD; 1600 μg BID (N = 59)): 7 (11.9) patients (%) | Nasopharyngitis (patients with COPD; 1600 μg BID (N = 59)): 6 (10.2) patients (%) | Oropharyngeal pain (patients with COPD; 1600 μg BID (N = 59)): 2 (3.4) patients (%) | Serious adverse events (patients with COPD; 1600 μg BID (N = 59)): 2 (3.4) patients (%) | Severe adverse events (patients with COPD; 1600 μg BID (N = 59)): 1 (1.7) patients (%) | Tension headache (patients with COPD; 1600 μg BID (N = 59)): 3 (5.1) patients (%) | Toothache (patients with COPD; 1600 μg BID (N = 59)): 1 (1.7) patients (%) | Patients reporting gastrointestinal adverse events (patients with COPD; 1600 μg BID, six patients): 10.2% | Haematology or biochemistry data, between treatments (patients with COPD; 800 or 1600 μg BID and placebo): no major differences | Systolic or diastolic blood pressure, heart rate or Fridericia's corrected QT interval vs placebo (patients with COPD; either dose (800 or 1600 μg BID)): no differences | Sputum concentration in relation to dose ([1]; 2 h post-dose, steady state (after Day 20), 800 vs 1600 μg BID): dose-proportionality was observed | Kp at 2 h ([1]; both sexes, human, sputum relative to plasma, inhaled, 2 h post-dose, steady state): ~2000 | concentration at 2 h ([1]; both sexes, human, 800 μg BID inhaled): 4900 ng/mL | concentration at 2 h ([1]; both sexes, human, 1600 μg BID inhaled): 10200 ng/mL | Storage time found stable in human plasma ([2]; freezer (nominally –80C)): 184 days | Freeze-thaw cycles found stable in human plasma ([2]; nominally –80C / +20C): four | Time found stable in human plasma ([2]; sample processing temperature (nominally +20C)): up to 24 h
